US20240013855A1, “METHOD OF SEARCHING FOR SPECIFIC-BINDING FUNCTIONAL SUBSTANCES, SPECIFIC-BINDING FUNCTIONAL SUBSTANCE SEARCH SYSTEM, SPECIFIC-BINDING FUNCTIONAL SUBSTANCE SEARCH METHOD, AND PROGRAM” (SHINSHU UNIVERSITY, priority 2020, published 2024)
Blank lines part the entries; values can stand above or below the molecule they belong to.

Experiments:
ABL in HEK293 cells = ABL in HEK293 cells (Homo sapiens, UniProt P00519); experiment: Western blotting detection of ABL in cultured cell line HEK293; conditions: HEK293 cultured for 4 days in the presence of compound
Method: Additionally, a western blotting detection using the cultured cell line HEK293 was conducted. […] Using the SDS-PAGE and western blotting methods, ABL and GAPDH were detected using antibodies specific to the two.

kinase ABL = kinase ABL (Homo sapiens, UniProt P00519); experiment: Kinase ABL inhibitory activity with and without heating/cooling; type: biochemical
Method: (§1) Here, inhibitory effects on other kinases were studied.
(§2) As a result, for the kinase DYRK1A, the upper-limit temperature of 67.0° C. and lower-limit temperature of 57.5° C. were calculated as temperature conditions based on the measured data, as shown in FIG. 16. Consequently, the setpoint heating temperature for the temperature jump test was set to 62.0° C. […] Consequently, the setpoint heating temperature for the temperature jump test was set to 53.7° C. Also, for the kinase SRC, the upper-limit temperature of 59.6° C. and lower-limit temperature of 51.4° C. were calculated as temperature conditions based on the measured data, as shown in FIG. 18. Consequently, the setpoint heating temperature for the temperature jump test was set to 55.5° C. Also, for the kinase ABL, the upper-limit temperature of 55.6° C. and lower-limit temperature of 47.3° C. were calculated as temperature conditions based on the measured data, as shown in FIG. 19. Consequently, the setpoint heating temperature for the temperature jump test was set to 52.0° C.

kinase SRC = kinase SRC (Homo sapiens, UniProt P12931); experiment: Kinase SRC inhibitory activity with and without heating/cooling; type: biochemical; conditions: for inhibitory activity on SRC compared with DYRK1A: temperature jump; for inhibition of kinase SRC: with and without heating/cooling, IC80 concentration for temperature-jump inhibition of DYRK1A
Method: as §1, §2

kinase DYRK1B = kinase DYRK1B (Homo sapiens, UniProt Q9Y463); experiment: Kinase DYRK1B inhibitory activity with and without heating/cooling; type: biochemical; conditions: for inhibitory activity without heating/cooling: complete protein not heated/cooled; for inhibitory effect specific to the folding intermediate undergoing heating/cooling: with versus without heating/cooling
Method: Consequently, the setpoint heating temperature for the temperature jump test was set to 62.0° C. […] Consequently, the setpoint heating temperature for the temperature jump test was set to 52.0° C.

Kinase DYRK1A = Kinase DYRK1A (Homo sapiens, UniProt Q13627); experiment: Kinase DYRK1A enzymatic activity (Kinase Glo, remaining ATP) with or without heating/quick cooling (temperature jump); type: biochemical; conditions: for inhibitory effect on the complete protein that was not heated/cooled: no heating/cooling (conventional evaluation); for inhibitory effect specific to the folding intermediate undergoing heating/cooling: with versus without heating/cooling (temperature jump)
Method: Lastly, in the embodiment, the effect of the presence of the candidate functional substance in influencing the function of the protein is determined (step C). For example, what is determined is, such as, inhibitory effect when searching for an inhibitor, accelerative effect when searching for an accelerator, coagulative effect when searching for a coagulant, stabilizing effect when searching for a stabilizer, or activating effect when searching for an activator, as a functional substance. […] As an example, in this process a determination can be made by using the Promega Kinase Glo assay kit, etc., to quantify the amount of ATP remaining in the tube, and thereby measuring its enzymatic activity. It should be noted that the determination of inhibitory effect is not limited to one based on use of the aforementioned kit, etc.
• Kinase DYRK1A protein mass: 25 ng • DMSO concentration: 0.3% in 25 μL • ATP/substrate peptide (DYRKtide peptide: amino-acid sequence […]) concentration: 5 μM each • Volume at enzymatic reaction: 25 μL • Volume in thermal cycler (Biometra TAdvanced Model 96SG): 15 μL • Enzymatic reaction period: 2 hrs.
• 1. The DYRK1A protein, inhibitors (solvent DMSO alone was added in the case of “Inhibitor 0 μM”), buffer (final concentrations: 5 mM MOPS pH7.2, 2.5 mM beta-glycerol-phosphate, 5 mM MgCl2, 1 mM EGTA, 0.4 mM EDTA, 0.05 mM DTT) and ultrapure water were mixed in tubes placed in a white 96-well PCR plate. [Volume: 15 μL, DYRK1A protein mass: 25 ng, inhibitor concentration: 30 μM] • 2. The plate was set in a thermal cycler and heated for 20 seconds at each heating temperature, and then cooled for 10 seconds at 3° C. [Rate of heating/rate of cooling both 8° C./sec.] • 3. Upon completion of cooling, it was removed immediately and 10 μL of ATP/substrate peptide mixture solution was added. [Volume: 15 μL→25 μL, ATP/substrate peptide concentration 5 μM] • 4. It was set in the thermal cycler again to cause enzymatic reaction for 2 hours […] at 20° C. • 5. It was picked up from the thermal cycler and 25 μL of Kinase Glo reaction solution was added, and from the resulting luminescence value, the remaining amount of ATP was measured to evaluate the enzymatic activity. [Volume: 25 μL 50 μL]

monoamine oxidase MAO-A = target: T1, monoamine oxidase MAO-A (Homo sapiens, UniProt P21397); experiment: Small-scale screening on monoamine oxidase MAO-A with temperature jump (MAO-A-Glo Assay); type: biochemical; conditions: temperature jump 69.2° C; plant-derived compound library (1 to 34)
T1 sequence (P21397 1-527): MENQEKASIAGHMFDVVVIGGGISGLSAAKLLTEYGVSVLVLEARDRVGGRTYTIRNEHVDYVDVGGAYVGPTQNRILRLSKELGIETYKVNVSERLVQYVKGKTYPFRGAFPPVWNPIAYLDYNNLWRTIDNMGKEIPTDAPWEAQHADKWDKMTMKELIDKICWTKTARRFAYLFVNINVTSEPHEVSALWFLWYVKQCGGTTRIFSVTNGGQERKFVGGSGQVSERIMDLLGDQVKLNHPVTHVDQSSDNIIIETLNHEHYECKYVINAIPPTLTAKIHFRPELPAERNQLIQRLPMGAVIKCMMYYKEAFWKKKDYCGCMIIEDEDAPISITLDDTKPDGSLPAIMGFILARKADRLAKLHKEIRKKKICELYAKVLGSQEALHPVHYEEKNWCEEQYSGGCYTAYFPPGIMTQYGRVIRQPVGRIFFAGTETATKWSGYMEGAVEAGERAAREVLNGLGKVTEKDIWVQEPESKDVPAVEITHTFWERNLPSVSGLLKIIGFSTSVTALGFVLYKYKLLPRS
Method: Also, the monoamine oxidase MAO-A was studied as a way to set the upper-limit temperatures and lower-limit temperatures in FIG. 11 to FIG. 13. FIG. 20 is a figure showing the study results on upper-limit temperature and lower-limit temperature for the monoamine oxidase MAO-A. It should be noted that the test was conducted according to the product manual for Promega's MAO-A-Glo™ Assay Systems. It should be noted that the relative enzymatic activity was calculated based on the enzymatic activity at 40° C. being 1.0.
As a result, for the […] MAO-A, the upper-limit temperature of 76.4° C. and lower-limit temperature of 62.0° C. were calculated as temperature conditions based on the measured data, as shown in FIG. 20. Consequently, the setpoint heating temperature for the temperature jump test was set to 69.2° C. FIG. 21 is a figure showing the small-scale inhibitor screening results with respect to the monoamine oxidase MAO-A.

DYRK1A in HEK293 cells = target: T2, DYRK1A in HEK293 cells (Homo sapiens, UniProt Q13627); experiment: Western blotting detection of DYRK1A in cultured cell line HEK293; type: cell-based; conditions: HEK293 cultured for 4 days in the presence of compound
T2 construct: endogenous in cells; host or cells: HEK293
Method: To be more specific, a study was conducted by western blotting using the cultured cell line HEK293.

Sequence of kinase SRC (P12931 whole entry): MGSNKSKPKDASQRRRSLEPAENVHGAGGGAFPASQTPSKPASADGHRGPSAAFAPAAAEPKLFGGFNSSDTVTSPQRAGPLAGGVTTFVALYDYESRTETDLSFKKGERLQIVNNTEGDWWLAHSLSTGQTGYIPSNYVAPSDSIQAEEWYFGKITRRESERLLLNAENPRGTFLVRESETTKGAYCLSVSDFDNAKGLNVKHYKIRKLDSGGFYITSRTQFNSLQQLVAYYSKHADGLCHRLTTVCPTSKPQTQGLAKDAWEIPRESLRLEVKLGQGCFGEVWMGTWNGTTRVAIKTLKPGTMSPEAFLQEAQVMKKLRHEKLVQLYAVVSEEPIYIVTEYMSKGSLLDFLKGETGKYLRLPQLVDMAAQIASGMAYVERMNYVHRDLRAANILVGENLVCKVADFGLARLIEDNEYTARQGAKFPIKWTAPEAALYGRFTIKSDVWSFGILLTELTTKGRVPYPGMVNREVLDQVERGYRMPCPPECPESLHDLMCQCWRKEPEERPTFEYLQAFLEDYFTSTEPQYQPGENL
Sequence of kinase DYRK1B (Q9Y463 whole entry): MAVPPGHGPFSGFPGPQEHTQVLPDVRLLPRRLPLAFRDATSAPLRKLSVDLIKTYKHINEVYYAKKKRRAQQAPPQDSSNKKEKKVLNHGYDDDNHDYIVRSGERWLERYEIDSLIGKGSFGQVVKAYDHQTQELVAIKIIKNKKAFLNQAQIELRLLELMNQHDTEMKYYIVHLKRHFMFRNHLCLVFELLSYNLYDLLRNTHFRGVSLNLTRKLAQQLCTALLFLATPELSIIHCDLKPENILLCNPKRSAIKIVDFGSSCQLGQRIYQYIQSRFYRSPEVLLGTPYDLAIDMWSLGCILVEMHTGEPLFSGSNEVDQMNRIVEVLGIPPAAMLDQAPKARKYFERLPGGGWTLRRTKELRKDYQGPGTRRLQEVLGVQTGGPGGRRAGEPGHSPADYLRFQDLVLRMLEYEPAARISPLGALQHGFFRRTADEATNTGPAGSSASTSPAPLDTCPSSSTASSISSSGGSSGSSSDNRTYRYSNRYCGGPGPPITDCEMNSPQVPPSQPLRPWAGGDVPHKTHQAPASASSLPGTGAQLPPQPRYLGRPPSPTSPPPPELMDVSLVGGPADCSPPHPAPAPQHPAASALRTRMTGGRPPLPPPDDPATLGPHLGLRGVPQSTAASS
Sequence of kinase ABL (P00519 whole entry): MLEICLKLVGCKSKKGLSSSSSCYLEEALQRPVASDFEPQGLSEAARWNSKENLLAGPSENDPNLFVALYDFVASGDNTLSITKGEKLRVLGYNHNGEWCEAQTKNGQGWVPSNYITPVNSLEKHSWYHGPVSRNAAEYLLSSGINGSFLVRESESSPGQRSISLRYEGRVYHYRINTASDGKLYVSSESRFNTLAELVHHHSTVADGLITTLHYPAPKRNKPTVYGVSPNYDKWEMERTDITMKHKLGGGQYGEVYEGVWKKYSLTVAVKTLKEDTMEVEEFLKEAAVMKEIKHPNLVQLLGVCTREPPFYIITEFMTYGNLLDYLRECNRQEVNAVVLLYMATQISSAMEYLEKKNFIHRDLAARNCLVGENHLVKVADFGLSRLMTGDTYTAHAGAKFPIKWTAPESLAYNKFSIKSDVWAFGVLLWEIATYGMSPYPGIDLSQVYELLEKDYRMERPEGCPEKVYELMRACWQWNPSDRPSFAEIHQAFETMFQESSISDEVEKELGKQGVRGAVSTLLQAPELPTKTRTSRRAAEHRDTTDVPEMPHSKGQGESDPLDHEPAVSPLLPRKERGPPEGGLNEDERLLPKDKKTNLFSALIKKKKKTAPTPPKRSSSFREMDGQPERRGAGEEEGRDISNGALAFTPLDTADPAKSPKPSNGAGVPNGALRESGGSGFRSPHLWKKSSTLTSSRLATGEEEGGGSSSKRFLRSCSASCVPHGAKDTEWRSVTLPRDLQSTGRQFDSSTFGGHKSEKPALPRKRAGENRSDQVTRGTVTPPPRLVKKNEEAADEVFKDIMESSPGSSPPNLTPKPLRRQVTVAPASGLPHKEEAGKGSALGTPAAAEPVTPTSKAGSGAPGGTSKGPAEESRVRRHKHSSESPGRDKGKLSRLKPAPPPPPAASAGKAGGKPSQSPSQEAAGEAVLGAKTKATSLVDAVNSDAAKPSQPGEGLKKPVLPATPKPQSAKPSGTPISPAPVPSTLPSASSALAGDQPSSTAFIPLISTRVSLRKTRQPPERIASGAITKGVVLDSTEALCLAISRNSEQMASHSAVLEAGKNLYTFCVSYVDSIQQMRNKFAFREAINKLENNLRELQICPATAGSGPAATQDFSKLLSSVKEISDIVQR
Sequence of ABL in HEK293 cells (P00519 whole entry): as above

SMILES: COc1ccc(/C=C2\SC(=S)NC2=O)cc1C#C[Si](C)(C)C [FINDY]
ABL band in western blotting (activity to decompose/remove ABL) (ABL in HEK293 cells): became fainter
inhibitory activity on ABL compared with DYRK1A (kinase ABL; temperature jump): stronger than that on DYRK1A
inhibition of kinase ABL (kinase ABL; with and without heating/cooling): strongly inhibited the kinase ABL in a temperature jump-dependent manner
inhibitory activity on SRC compared with DYRK1A (kinase SRC): weaker than those on DYRK1A
inhibition of kinase SRC (kinase SRC): inhibited the kinase SRC in a temperature jump-dependent manner

SMILES: COc1ccc2c(c1)[nH]c1c(C)nccc12 [Harmine]
inhibitory activity without heating/cooling (kinase DYRK1B): exhibited an inhibitory effect
inhibitory effect specific to the folding intermediate undergoing heating/cooling (kinase DYRK1B): did not exhibit a specific inhibitory effect
inhibitory effect on the complete protein that was not heated/cooled (Kinase DYRK1A): exhibited an inhibitory effect
inhibitory effect specific to the folding intermediate undergoing heating/cooling (Kinase DYRK1A): did not exhibit a specific inhibitory effect

inhibitory activity without heating/cooling (kinase DYRK1B): exhibited an inhibitory effect
inhibitory effect on the complete protein that was not heated/cooled (Kinase DYRK1A): exhibited an inhibitory effect
SMILES: CCOc1cc(/C=C2\SC(=S)NC2=O)ccc1O [RD0392]
inhibitory effect specific to the folding intermediate undergoing heating/cooling (kinase DYRK1B): did not exhibit a specific inhibitory effect
inhibitory effect specific to the folding intermediate undergoing heating/cooling (Kinase DYRK1A): did not exhibit a specific inhibitory effect

SMILES: COc1ccc(/C=C2\SC(=S)NC2=O)cc1C#C[Si](C)(c1ccccc1)c1ccccc1 [compound 168]
inhibitory activity on SRC compared with DYRK1A (kinase SRC): weaker than those on DYRK1A
inhibition of kinase SRC (kinase SRC): inhibited the kinase SRC in a temperature jump-dependent manner

DYRK1A band in western blotting (activity to decompose/remove DYRK1A) (DYRK1A in HEK293 cells): became fainter
SMILES: O=C(O[C@H]1Cc2ccccc2C[C@H]1OC(=O)c1cc(O)c(O)c(O)c1)c1cc(O)c(O)c(O)c1 [compound No. 2]
temperature jump-dependent inhibitory activity on MAO-A (monoamine oxidase MAO-A): temperature jump-dependent inhibitory activity was confirmed
inhibitory effect specific to the folding intermediate undergoing heating/cooling (Kinase DYRK1A): exhibited a specific inhibitory effect only with the folding intermediate
